“Also recorded” adds a separate entry of the source.

For one test, the system named is HEK 293 cells. The test can be described thus: MTT cell viability assay in parent HEK 293 cells. The test is classed as cell-based. Here is the method:
(§1) Parent (HEK 293) cells, and HEK 293 cells expressing rat P2X7 (HEK 293 P2X7 (rat) cells) were treated with ATP (Sigma, A9062) to determine the effects of ATP on the viability of the cells. Cell viability was determined using an MTT assay (Wen, 2003). Cells were treated with between 0 and 2 μM of ATP. MTT was added to the cell cultures 180 minutes after ATP treatment. The MTT assay was performed 60 minutes after the addition of MTT. Cell viability was directly correlatable to the absorbance of 550 nm light by the cell culture, with a higher absorbance meaning higher cell viability. The cell culture media was removed and the cells were solubilized using DMSO. The absorbance of the solubilized cells was read.
(§2) HEK 293 and HEK 293 P2X7 (rat) cells were treated with 0 to 50 μM of P5P, a vitamin B6 related compound, in sodium salt form (Chemistry Department, CanAm Bioresearch Inc.). Thirty minutes later, cells were treated with 0.4 μM ATP, to determine the effects of ATP on the viability of the MC-1 treated cells. Control cells received sham treatment of P5P, and sham treatment of ATP.
Cell viability was determined using an MTT assay. MTT was added to the cell cultures 180 minutes after ATP treatment. […] Cell viability was directly correlatable to the absorbance of 550 nm light by the cell culture, with a higher absorbance meaning higher cell viability.
For orientation: Formazan colour is commonly taken as a measure of viable cells.

The next test has as its target T1, rat P2X7 receptor (Rattus norvegicus, UniProt Q64663).
T1 construct: expressed in transfected cells; host or cells: HEK 293
T1 sequence (Q64663 1-595): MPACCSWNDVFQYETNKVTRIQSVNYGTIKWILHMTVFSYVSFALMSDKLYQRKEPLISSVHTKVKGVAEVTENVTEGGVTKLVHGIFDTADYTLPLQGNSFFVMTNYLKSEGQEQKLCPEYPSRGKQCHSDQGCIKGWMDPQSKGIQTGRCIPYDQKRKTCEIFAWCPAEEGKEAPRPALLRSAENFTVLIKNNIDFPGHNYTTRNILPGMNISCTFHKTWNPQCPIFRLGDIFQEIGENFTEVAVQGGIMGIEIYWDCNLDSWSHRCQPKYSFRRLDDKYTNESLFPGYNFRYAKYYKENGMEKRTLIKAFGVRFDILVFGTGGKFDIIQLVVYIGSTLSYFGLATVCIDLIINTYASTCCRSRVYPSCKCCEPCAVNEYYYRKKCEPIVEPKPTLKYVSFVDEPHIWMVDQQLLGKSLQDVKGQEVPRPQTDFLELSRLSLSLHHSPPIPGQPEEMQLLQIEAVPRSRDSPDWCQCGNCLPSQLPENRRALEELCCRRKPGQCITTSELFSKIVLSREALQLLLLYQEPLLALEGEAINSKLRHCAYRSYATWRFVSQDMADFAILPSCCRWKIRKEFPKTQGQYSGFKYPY
The test can be described thus: MTT cell viability assay in HEK 293 cells stably expressing rat P2X7 (ATP-mediated, P2X7-dependent cell death). The test is classed as cell-based. Conditions: HEK 293 P2X7 (rat) cells. On the procedure:
HEK 293 cells were stably transfected to express rat P2X7 receptor, using standard tissue culture techniques (Surprenant et al, 1996). The cell line was known to not express any of the other P2X receptors (Schachter et al, 1997). Stable expression of P2X7 was confirmed by Western blot (results not shown).
as §1, §2
Cell viability was determined using an MTT assay. MTT was added to the cell cultures 180 minutes after ATP treatment. The MTT assay was performed 60 minutes after the addition of MTT. Cell viability was directly correlatable to the absorbance of 550 nm light by the cell culture, with a higher absorbance meaning higher cell viability.

For test [1], the system named is IL-1β processing and release from PMA/LPS stimulated THP-1 cells. Kind of test: ATP-induced processing and release of IL-1β from PMA/LPS stimulated THP-1 cells (human IL-1β ELISA). Particulars: 5 mM ATP for one hour; for effect on ATP-induced processing and release of IL-1β: test compound 0.5-150 μM, 30 min pretreatment, IL-1β in media by ELISA. The test is classed as cell-based. Here is the method:
THP-1 non-adherent, monocytic cells (ATCC) were pre-treated with phorbol-12-myristate-13-acetate (PMA), which differentiated the cells into macrophage-like cells. Briefly, approximately 8×10^6 THP-1 cells were harvested, pelleted, resuspended in media to which PMA was added at a final concentration of 0.5 μM. The cells were incubated for 3 hours, then collected, washed, and plated.
The next day, the cells were treated with lipopolysaccharide (LPS) to stimulate IL-1β production. Briefly, the media was removed and replaced with RPI media+10% fetal calf serum containing 100 ng/ml of LPS. Cells were incubated for an additional 24 hours.
Cells were pretreated for 30 minutes, then the media was replaced with media containing 5 mM ATP as well as the test compound. Cells were exposed to ATP for one hour. Media was then collected and the amount of IL-1β in the media was determined using a human IL-1β ELISA (R&D Systems).
Results were expressed as the mean±sem. Statistical analysis was performed using […] (Medistats). […] IL-1β levels were measured in the cell culture media by ELISA and the results are expressed as a percent of the untreated (baseline) controls.

In the next test the target is T2, P2X7 receptors (Rattus norvegicus, UniProt Q64663).
T2 construct: expressed in transfected cells; host or cells: HEK 293
T2 sequence (Q64663 1-595): T1 sequence (Q64663 1-595)
Kind of test: BzATP-mediated, P2X7-dependent cell death (Examples 1-2 repeated with BzATP). The test is classed as cell-based. Particulars: BzATP substituted for ATP; example in present tense. An excerpt: Examples 1-2 are repeated, substituting BzATP for ATP. BzATP is known to be a specific agonist of P2X7 receptors. This Example yields results consistent with Examples 1-4, further establishing that the pathway utilized is a P2X7 dependent pathway.

In a further test the test system is IL-1β. Kind of test: Cytokine response of lipopolysaccharide treated rats (plasma IL-1β). It counts as in vivo, Sprague-Dawley rats. Conditions: blood at 240 min, example in present tense. On the procedure:
Sprague-Dawley rats weighing approximately 300 g are treated with 1, 3, or 10 mg/kg P5P (or a saline control). Thirty minutes later (t=30), the animals are given a 50 μg/kg intraperitoneal injection of LPS (or a saline control). Temperature of the animals is measured, and a blood sample is collected at 240 minutes post-treatment (t=240).
Blood samples are transferred to heparinized tubes and plasma is separated by centrifugation. Plasma is assayed for IL-1β, [IL-6 and TNF-α].

As to `Nc1ncnc2c1ncn2[C@@H]1O[C@H](COP(=O)(O)OP(=O)(O)OP(=O)(O)O)[C@@H](O)[C@H]1O` [ATP, adenosine triphosphate], the “cell viability (MTT, absorbance at 550 nm)” value in the test on HEK 293 cells (parent HEK 293 cells, up to 2 μM ATP, MTT added 180 min after ATP) was “did not significantly affect”. Moreover, the “ATP concentration from which significant loss in cell viability starts (MTT)” value at rat P2X7 receptor (0 to 2 μM ATP tested) is at least 0.4 µM. For the same molecule, the “processing and release of IL-1β into the culture media” value in test [1] (PMA/LPS primed THP-1 cells, versus untreated baseline) is reported as “significant increase”.
Take `Cc1ncc(COP(=O)(O)O)c(C=O)c1O` [P5P, pyridoxal-5′-phosphate]: the “cell viability (MTT) after P5P pretreatment and ATP” value in the test on HEK 293 cells (HEK 293 cells, 0 to 50 μM P5P 30 min before 0.4 μM ATP) is “did not have any significant effect”. For the same molecule, the “cell viability (MTT) of ATP treated cells after P5P pretreatment” value on rat P2X7 receptor (50 μM P5P half an hour before 0.4 μM ATP) is “significantly improved”; on rat P2X7 receptor (1.5 to 15 μM P5P 30 min before 0.4 μM ATP) it was “did not significantly affect”. Further, the “viability of P5P pretreated, ATP treated cells compared with control cells” value at rat P2X7 receptor (50 μM P5P, 0.4 μM ATP, control = sham P5P and sham ATP) is on record as “no significant difference”. Also, in test [1], the “effect on ATP-induced processing and release of IL-1β” value (“effect” for short) was “uniquely effective; also recorded: significantly inhibited”. On P2X7 receptors, the “protection from BzATP-mediated, P2X7-dependent cell death” value was “Protects Cells”. In addition, the “processing and release of IL-1β in vivo (plasma)” value in the test on IL-1β (rats, 1, 3 or 10 mg/kg P5P 30 min before 50 μg/kg i.p. LPS) is recorded as “significantly inhibits”.
For `Cc1ncc(CO)c(C=O)c1O` [pyridoxal], the “effect” value in test [1] was “not effective; also recorded: no significant effect”.
For `Cc1ncc(CO)c(CN)c1O` [pyridoxamine], in test [1], the “effect” value is “not effective; also recorded: no significant effect”.
Still for that read-out and setting: the result for `Cc1ncc(CO)c(CO)c1O` [pyridoxine] reads “not effective; also recorded: no significant effect”.
Regarding lipopolysaccharide [LPS], in the test with IL-1β (rats, 50 μg/kg intraperitoneal LPS), the “processing and release of IL-1β [IL-6 and TNF-α] into the plasma” value is given as “significant increase”.
For pyridoxamine phosphate, in test [1], the “effect” value is reported as “not effective; also recorded: no significant effect”.

For the origin of these results see patent US20090215727A1, “INHIBITION OF ATP-MEDIATED, P2X7 DEPENDENT PATHWAYS BY PYRIDOXAL-5-PHOSPHATE AND VITAMIN B6 RELATED COMPOUNDS” (MEDICURE INTERNATIONAL INC., priority 2005, published 2009).
